Data taken from US8987195B2 (priority 2012, dated 2015).
Read-outs that look alike come from different tables or passages of the source.

Tests used:
[1] = biological target: HCV NS3/4A protease genotype 1b (Hepatitis C virus genotype 1b, UniProt P26663); assay: HCV NS3/4A protease time-resolved fluorescence (TRF) assay, Ki against genotype 1b; type: biochemical
Summary of the method: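 Enzyme was pre-incubated 30 min with inhibitor in HEPES pH 7.5 buffer (150 mM NaCl, 15% glycerol, 10 mM DTT). Reaction ran 2.5 h at room temperature with 25 nM europium TRF peptide substrate, read at ex 340/em 615 nm. Enzyme levels: 0.2 nM (1b), 0.4 nM (A156T), 0.025 nM (3a). Ki came from four-parameter IC50 via IC50=Ki(1+[S]/KM).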

HCV genotype 1b replicon = assay: HCV replicon assay, genotype 1b replicon EC50; type: cell-based, Hepatitis C virus; details: Hepatitis C virus, read-out: EC50 [gt-1b]
Summary of the method: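 Stable neomycin phosphotransferase-encoding replicon cell lines, kept under G418 selection beforehand, were plated with a compound dilution series without G418 and incubated 24-48 hours. Replicon RNA was then quantified, or luciferase activity read. EC50 was calculated as percent of DMSO control by four-parameter fit.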

[2] = IC50 [gt-1b] (nM), NS3/4A genotype 1b, enzyme 0.2 nM
[3] = IC50 [gt-1b] (nM), NS3/4A genotype 1b, enzyme 0.2 nM, K+ salt

Row | SMILES | IC50 [1, 2] | EC50 (HCV genotype 1b replicon; genotype 1b replicon) | IC50 [1, 3] | EC50 (HCV genotype 1b replicon; genotype 1b replicon, K+ salt) | other results
1 | Cc1nc2ccccc2c2c1O[C@@]1(CC2)C[C@H]2C(=O)N[C@]3(C(=O)NS(=O)(=O)C4(C)CC4)C[C@H]3/C=C\CCCCC[C@H](NC(=O)OC(C)(C)C)C(=O)N2C1 [Example 75, tert-butyl [(2S,6S,12Z,13aS,14aR,16a5)-5′-methyl-14a-{[(1-methylcyclopropyl)sulfonyl]carbamoyl}-5,16-dioxo-1,1′,2′,5,6,7,8,9,10,11,13a,14,14a,15,16,16a-hexadecahydrospiro[cyclopropa[e]pyrrolo[1,2-a][1,4]diazacyclopentadecine-2,3′-pyrano[2,3-c]quinolin]-6-yl]carbamate] | 0.022 nM | 7.36 nM | – | – | –
2 | Cc1nc2ccc(Cl)cc2c2c1O[C@]1(CC2)C[C@H]2C(=O)N[C@]3(C(=O)NS(=O)(=O)C4(C)CC4)C[C@H]3/C=C\CCCCC[C@H](NC(=O)OC3CCCC3)C(=O)N2C1 [Example 182, cyclopentyl [(2R,6S,12Z,13aS,14aR,16aS)-9′-chloro-5′-methyl-14a-{[(1-methylcyclopropyl)sulfonyl]carbamoyl}-5,16-dioxo-1,1′,2′,5,6,7,8,9,10,11,13a,14,14a,15,16,16a-hexadecahydrospiro[cyclopropa[e]pyrrolo[1,2-a][1,4]diazacyclopentadecine-2,3′-pyrano[2,3-c]quinolin]-6-yl]carbamate] | – | – | 0.009 nM | 1.7 nM | –
3 | Cc1nc2ccc(Cl)cc2c2c1O[C@]1(CC2)C[C@H]2C(=O)N[C@]3(C(=O)NS(=O)(=O)C4(C)CC4)C[C@H]3/C=C\CCCCC[C@H](NC(=O)OC3CCCCC3)C(=O)N2C1 [Example 190, cyclohexyl [(2R,6S,12Z,13aS,14aR,16aS)-9′-chloro-5′-methyl-14a-{[(1-methylcyclopropyl)sulfonyl]carbamoyl}-5,16-dioxo-1,1′,2′,5,6,7,8,9,10,11,13a,14,14a,15,16,16a-hexadecahydrospiro[cyclopropa[e]pyrrolo[1,2-a][1,4]diazacyclopentadecine-2,3′-pyrano[2,3-c]quinolin]-6-yl]carbamate] | – | – | 0.009 nM | 13.2 nM | –
4 | Cc1nc2ccccc2c2c1O[C@]1(CC2)C[C@H]2C(=O)N[C@]3(C(=O)NS(=O)(=O)C4(C)CC4)C[C@H]3/C=C\CCCCC[C@H](NC(=O)OCC(F)F)C(=O)N2C1 [Example 121, 2,2-difluoroethyl [(2R,6S,12Z,13aS,14aR,16aS)-5′-methyl-14a-{[(1-methylcyclopropyl)sulfonyl]carbamoyl}-5,16-dioxo-1,1′,2′,5,6,7,8,9,10,11,13a,14,14a,15,16,16a-hexadecahydrospiro[cyclopropa[e]pyrrolo[1,2-a][1,4]diazacyclopentadecine-2,3′-pyrano[2,3-c]quinolin]-6-yl]carbamate] | 0.025 nM | 6.46 nM | – | – | –
5 | CCc1nc2ccc(OCCCOC)cc2c2c1O[C@]1(CC2)C[C@H]2C(=O)N[C@]3(C(=O)NS(=O)(=O)C4(C)CC4)C[C@H]3/C=C\CCCCC[C@H](NC(=O)OC(C)(C)C)C(=O)N2C1 [Example 479, tert-butyl [(2R,6S,12Z,13aS,14aR,16aS)-5′-ethyl-9′-(3-methoxypropoxy)-14a-{[(1-methylcyclopropyl)sulfonyl]carbamoyl}-5,16-dioxo-1,1′,2′,5,6,7,8,9,10,11,13a,14,14a,15,16,16a-hexadecahydrospiro[cyclopropa[e]pyrrolo[1,2-a][1,4]diazacyclopentadecine-2,3′-pyrano[2,3-c]quinolin]-6-yl]carbamate] | – | – | – | – | IC50 ([1]; IC50 [gt-1b], NS3/4A protease TRF assay, genotype 1b enzyme 0.2 nM): 0.005 nM; EC50 (HCV genotype 1b replicon; HCV replicon, genotype 1b): 1.05 nM
6 | Cc1nc2ccccc2c2c1O[C@]1(CC2)C[C@H]2C(=O)N[C@]3(C(=O)NS(=O)(=O)C4(C)CC4)C[C@H]3/C=C\CCCCC[C@H](NC(=O)OC(C)(C)C(F)(F)C(F)(F)F)C(=O)N2C1 [Example 300, 3,3,4,4,4-pentafluoro-2-methylbutan-2-yl [(2R,6S,12Z,13aS,14aR,16aS)-5′-methyl-14a-{[(1-methylcyclopropyl)sulfonyl]carbamoyl}-5,16-dioxo-1,1′,2′,5,6,7,8,9,10,11,13a,14,14a,15,16,16a-hexadecahydrospiro[cyclopropa[e]pyrrolo[1,2-a][1,4]diazacyclopentadecine-2,3′-pyrano[2,3-c]quinolin]-6-yl]carbamate] | 0.021 nM | 3.12 nM | – | – | –
7 | COCC(C)(C)OC(=O)N[C@H]1CCCCC/C=C\[C@@H]2C[C@@]2(C(=O)NS(=O)(=O)C2(C)CC2)NC(=O)[C@@H]2C[C@@]3(CN2C1=O)CC(F)(F)c1c(c(C(C)C)nc2ccc(OC)cc12)O3 [Example 242, 1-methoxy-2-methylpropan-2-yl [(2S,6S,12Z,13aS,14aR,16aS)-1′,1′-difluoro-9′-methoxy-14a-{[(1-methylcyclopropyl)sulfonyl]carbamoyl}-5,16-dioxo-5′-(propan-2-yl)-1,1′,2′,5,6,7,8,9,10,11,13a,14,14a,15,16,16a-hexadecahydrospiro[cyclopropa[e]pyrrolo[1,2-a][1,4]diazacyclopentadecine-2,3′-pyrano[2,3-c]quinolin]-6-yl]carbamate] | 0.022 nM | 3.38 nM | – | – | –
8 | Cc1nc2cc(F)ccc2c2c1O[C@]1(CC2)C[C@H]2C(=O)N[C@]3(C(=O)NS(=O)(=O)C4(C)CC4)C[C@H]3/C=C\CCCCC[C@H](NC(=O)OC(C)(C)C(F)(F)F)C(=O)N2C1 [Example 328, 1,1,1-trifluoro-2-methylpropan-2-yl [(2R, 6S,12Z,13aS,14aR,16aS)-8′-fluoro-5′-methyl-14a-{[(1-methylcyclopropyl)sulfonyl]carbamoyl}-5,16-dioxo-1,1′,2′,5,6,7,8,9,10,11,13a,14,14a,15,16,16a-hexadecahydrospiro[cyclopropa[e]pyrrolo[1,2-a][1,4]diazacyclopentadecine-2,3′-pyrano[2,3-c]quinolin]-6-yl]carbamate] | – | – | 0.348 nM | 47 nM | –
9 | Cc1nc2ccccc2c2c1O[C@]1(CC2)C[C@H]2C(=O)N[C@]3(C(=O)NS(=O)(=O)C4(C)CC4)C[C@H]3/C=C\CCCCC[C@H](NC(=O)N3CCOCC3)C(=O)N2C1 [Example 291, (2R,6S,12Z,13aS,14aR,16aS)-5′-methyl-N-[(1-methylcyclopropyl)sulfonyl]-6-[(morpholin-4-ylcarbonyl)amino]-5,16-dioxo-1,1′,2′,6,7,8,9,10,11,13a,14,15,16,16a-tetradecahydrospiro[cyclopropa[e]pyrrolo[1,2-a][1,4]diazacyclopentadecine-2,3′-pyrano[2,3-c]quinoline]-14a(5R)-carboxamide] | – | – | – | – | IC50 ([1]; IC50 [gt-1b] (nM), NS3/4A genotype 1b, enzyme 0.2 nM, HCOOH salt): 0.032 nM; EC50 (HCV genotype 1b replicon; genotype 1b replicon, HCOOH salt): 84.6 nM
10 | Cc1nc2ccccc2c2c1O[C@]1(CC2)C[C@H]2C(=O)N[C@]3(C(=O)NS(=O)(=O)C4(C)CC4)C[C@H]3/C=C\CCCCC[C@H](NC(=O)OCC(C)C)C(=O)N2C1 [Example 97, 2-methylpropyl [(2R,6S,12Z,13aS,14aR,16aS)-5′-methyl-14a-{[(1-methylcyclopropyl)sulfonyl]carbamoyl}-5,16-dioxo-1,1′,2′,5,6,7,8,9,10,11,13a,14,14a,15,16,16a-hexadecahydrospiro[cyclopropa[e]pyrrolo[1,2-a][1,4]diazacyclopentadecine-2,3′-pyrano[2,3-c]quinolin]-6-yl]carbamate] | 0.016 nM | 1.94 nM | – | – | –
